# Test results taken from ChEMBL document CHEMBL3627596, “Discovery of Novel Inhibitor Scaffolds against the Metallo-β-lactamase VIM-2 by Surface Plasmon Resonance (SPR) Based Fragment Screening” (J Med Chem, 2015).
# pIC50, pKd: −log10 of the molar value.
# Tests used:
# [1] = molecular target: Beta-lactamase VIM-2 (Pseudomonas aeruginosa) (UniProt Q9K2N0); experiment: Inhibition of Pseudomonas aeruginosa 301-5473 metallo-beta-lactamase VIM-2 expressed in Escherichia coli BL21(DE3) using nitrocefin as substrate at 500 uM preincubated for 5 mins followed by substrate addition measured every 17 secs for 20 mins by microplate reader analysis relative to control
# Beta-lactamase VIM-2 [2] = molecular target: T1, Beta-lactamase VIM-2 (Pseudomonas aeruginosa, UniProt Q9K2N0); experiment: Inhibition of Pseudomonas aeruginosa 301-5473 metallo-beta-lactamase VIM-2 expressed in Escherichia coli BL21(DE3) using nitrocefin as substrate preincubated for 5 mins followed by substrate addition measured every 17 secs for 20 mins by microplate reader analysis
# Beta-lactamase VIM-2 [3] = molecular target: T1, Beta-lactamase VIM-2; experiment: Binding affinity to Pseudomonas aeruginosa 301-5473 metallo-beta-lactamase VIM-2 expressed in Escherichia coli BL21(DE3) measured for 15 secs by SPR analysis
# Beta-lactamase VIM-2 [4] = molecular target: T1, Beta-lactamase VIM-2; experiment: Reversible binding affinity to Pseudomonas aeruginosa 301-5473 metallo-beta-lactamase VIM-2 expressed in Escherichia coli BL21(DE3) measured for 15 secs by SPR analysis
# [5] = molecular target: Beta-lactamase VIM-2 (Pseudomonas aeruginosa) (UniProt Q9K2N0); details: 301-5473
# Description: Reversible binding affinity to Pseudomonas aeruginosa 301-5473 metallo-beta-lactamase VIM-2 expressed in Escherichia coli BL21(DE3) assessed as association constant measured for 30 secs by SPR analysis
# Beta-lactamase VIM-2 [6] = molecular target: T1, Beta-lactamase VIM-2; experiment: Dissociation rate constant to Pseudomonas aeruginosa 301-5473 metallo-beta-lactamase VIM-2 expressed in Escherichia coli BL21(DE3) by SPR analysis
SMILES,inhibition [1] [%],pIC50 (Beta-lactamase VIM-2 [2]),pKd (Beta-lactamase VIM-2 [3]),pKd (Beta-lactamase VIM-2 [4]),Ka [5] [×10⁴ /M/s],koff (Beta-lactamase VIM-2 [6]) [s⁻¹]
O=C(O)c1cncc(C#Cc2ccccc2)c1,> 15,3.53,3.35,–,–,–
O=C(O)CSc1ccnc2cc(Cl)ccc12,> 15,3.69,3.58,–,–,–
N#Cc1c(C(F)(F)F)cc(-c2cccs2)nc1O,> 15,3.50,3.64,–,–,–
Cn1c(S)nnc1C(F)(F)F,> 15,3.63,3.84,–,–,–
O=C(O)c1ccccc1Cc1ccccc1,–,< 3.00,–,–,–,–
O=C(O)c1ccccc1C(=O)c1ccccc1 [2-BENZOYLBENZOIC ACID],–,5.10,–,–,–,–
C[C@H](CS)C(=O)N1CCC[C@H]1C(=O)O [CAPTOPRIL],–,5.46,–,6.22,4.2,0.025
CCCc1ccc(C(=O)CCC(=O)O)cc1,> 15,3.54,3.76,–,–,–
O=C(O)c1ccccc1C(=O)c1ccc(Cl)cc1,–,4.92,–,–,–,–
N#Cc1coc2ccccc2c1=O,> 15,2.85,3.00,–,–,–
COC(=O)c1ccccc1C(=O)c1ccccc1,–,< 2.52,–,–,–,–
O=C(O)c1ccccc1C(=O)c1ccc(F)cc1,> 15,4.85,5.05,–,–,–
O=C(O)CCCc1c[nH]c2ccccc12,> 15,3.12,3.56,–,–,–
CC(=O)c1ccccc1C(=O)O,–,< 3.00,–,–,–,–
C[C@@H](O)[C@H]1C(=O)N2C(C(=O)O)=C(S[C@@H]3CN[C@H](C(=O)N(C)C)C3)[C@H](C)[C@H]12 [MEROPENEM],–,–,–,4.92,–,–
